Data: US11352338B2, “Substituted isoindolinones” (BioTheryX, Inc., priority 2018, dated 2022)
Like-named read-outs stand apart in the source and are kept apart here.

Assays:
Ikaros = target: T1, Ikaros (Homo sapiens, UniProt Q13422+Q96SW2); assay: Western blot, degradation of cellular Ikaros in MV-4-11 cells; type: cell-based; settings: MV4-11, tested at 1 μM, 6-8 hours, read-out: % Degradation compared to DMSO, Ikaros
T1 construct: endogenous in cells; host or cells: MV-4-11
Protocol: (§1) MV-4-11 cells were grown in RPMI 1640 media supplemented with 10% fetal bovine serum, streptomycin and penicillin.
(§2) Cells were cultured at approximately 10^6 cells per mL and incubated in DMSO or the indicated compounds for 6-8 hours. Whole cell extracts were prepared using RIPA lysis buffer according to manufacturer's protocol (Pierce). Briefly, 4×10^6 cells were washed once in PBS, the cell pellets were resuspended in RIPA lysis buffer and allowed to incubate for 15 minutes on ice. Cells debris was removed by centrifugation and the cleared whole cell lysates were transferred to new tubes for further analysis.
(§3) For Western blot analysis, whole cell protein extracts were separated on 4-12% SDS-polyacrylamide gels, transferred to nitrocellulose and probed with the indicated primary antibodies. Membranes were subsequently washed and probed with the appropriate IRDye secondary antibodies (LI-COR). The signal was detected using the Odyssey Imaging System (LI-COR).
(§4) The following antibodies were used in these studies: Anti-PDE6D antibody: Santa Cruz Biotechnology, sc-166854 (Dallas, Tex.); Anti-Ikaros: Abcam, ab191394 (Cambridge, Mass.); anti-CK1α antibody: Abcam, ab108296 (Cambridge, Mass.); β-Actin (8H10D10) mouse monoclonal antibody: Cell Signaling Technology, #3700 (Danvers, Mass.); IRDye 680RD Goat anti-rabbit antibody: LI-COR, 926-68071 (Lincoln, Nebr.); and IRDye 800CW Goat anti-mouse antibody: LI-COR, 926-32210 (Lincoln, Nebr.).
(§5) The % degradation values are reported as “A”, “B”, “C”, or “D.” “A” represents a % degradation value of less than 25% (value<25%); “B” represents a % degradation value of equal to or more than 25% and less than 50% (25%≤value<50%); “C” represents a % degradation value of equal to or more than 50% and less than 75% (50%≤value<75%); and “D” represents a % degradation value of equal to or more than 75% (value≥75%). […] was used as control.

PDE6D = target: T2, PDE6D (Homo sapiens, UniProt O43924+Q96SW2); assay: Western blot, degradation of cellular PDE6D in MV-4-11 cells; type: cell-based; settings: for Dmax at 1 µM: MV4-11, tested at 1 μM, MV-4-11 cells, 6-8 hours, read-out: % Degradation compared to DMSO, PDE6D; for % Degradation of PDE6D: comparison with comparative compound A
T2 construct: endogenous in cells; host or cells: MV-4-11
Protocol: as §1, §2, §3, §4, §5

IL-1β = IL-1β inhibition, LPS-induced PBMCs or CD14+ monocytes, Meso Scale assay; type: cell-based; settings: LPS 100 ng/mL 18-24 h, read-out: % Inhibition compared to DMSO, IL-1β; for inhibition at 1 µM: tested at 1 μM; for inhibition at 10 µM: tested at 10 μM
Protocol: (§6) Either frozen primary blood mononuclear cells (PBMCs) or frozen CD14+ mobilized peripheral blood monocytes were purchased from AllCells (PB003F, Normal Peripheral Blood MNC (Alameda, Calif.)). Cells were quick thawed, washed 1-time with RPMI-1640 (10% FBS/1% Pen-Strep) and plated in 96 well plates at 200,000 cells per well. Cells were pretreated with DMSO only or with the indicated compound for 1 h and then induced with 100 ng/mL lipopolysaccharide (LPS) for 18-24 h. The supernatant was analyzed for IL-1β, IL-6, and TNFα, using Meso Scale assay according to manufacturer's protocol. The negative control wells were treated with DMSO.
(§7) IL-1β, IL-6 and TNFα activities were tested at two different concentrations (1 μM and 10 μM) and the results are shown in Tables 2 and 3 respectively.

IL-6 = IL-6 inhibition, LPS-induced PBMCs or CD14+ monocytes, Meso Scale assay; type: cell-based; settings: LPS 100 ng/mL 18-24 h, read-out: % Inhibition compared to DMSO, IL-6; for inhibition at 1 µM: tested at 1 μM; for inhibition at 10 µM: tested at 10 μM
Protocol: as §6, §7

TNFα = TNFα inhibition, LPS-induced PBMCs or CD14+ monocytes, Meso Scale assay; type: cell-based; settings: LPS 100 ng/mL 18-24 h, read-out: % Inhibition compared to DMSO, TNFα; for inhibition at 1 µM: tested at 1 μM; for inhibition at 10 µM: tested at 10 μM
Protocol: as §6, §7

IL-2 = IL-2 inhibition assay, anti-CD3 (OKT3) stimulated PBMCs, Mesoscale IL-2 analysis; type: cell-based, human; settings: for fold induction at 1 µM / fold induction at 10 µM: Homo sapiens, PBMC, read-out: IL-2, % Induction compared to DMSO
Protocol: For the IL-2 analysis, 96 well plates were precoated with 1 μg/mL anti-human CD3 antibody (OKT3, eBioscience Inc., San Diego, Calif.). After washing with PBS, the indicated compound was added (50 μL/well) followed by PBMCs diluted at 3-4 million cells/mL (150 μL/well). Plates were incubated for 24 h and the supernatants collected for Mesoscale IL-2 analysis. IL-2 activity is measured as fold difference from the DMSO control. […]
In Table 4, the fold-change values are reported as “A”, “B”, “C”, or “D”. “A” represents a fold-change value of equal to or less than 0.5 (value≤0.5); “B” represents a fold-change value of more than 0.5 and equal to or less than 1 (0.5<value≤1); “C” represents a fold-change value of more than 1 and less than 1.5 (1<value<1.5); and “D” represents a fold-change value of equal to or more than 1.5 (value≥1.5).

CK1α = target: T3, CK1α (Homo sapiens, UniProt P48729+Q96SW2); assay: Western blot, degradation of cellular CK1α in MV-4-11 cells; type: cell-based; settings: MV4-11, tested at 1 μM, 6-8 hours, read-out: % Degradation compared to DMSO, CK1α
T3 construct: endogenous in cells; host or cells: MV-4-11
Protocol: as §1, §2, §3, §4, §5

[1] = PBMCs on anti-CD3, 24 h, fold difference from DMSO control
[2] = 10 μM, PBMCs on anti-CD3, 24 h, fold difference from DMSO control

T3 sequence (P48729 whole entry): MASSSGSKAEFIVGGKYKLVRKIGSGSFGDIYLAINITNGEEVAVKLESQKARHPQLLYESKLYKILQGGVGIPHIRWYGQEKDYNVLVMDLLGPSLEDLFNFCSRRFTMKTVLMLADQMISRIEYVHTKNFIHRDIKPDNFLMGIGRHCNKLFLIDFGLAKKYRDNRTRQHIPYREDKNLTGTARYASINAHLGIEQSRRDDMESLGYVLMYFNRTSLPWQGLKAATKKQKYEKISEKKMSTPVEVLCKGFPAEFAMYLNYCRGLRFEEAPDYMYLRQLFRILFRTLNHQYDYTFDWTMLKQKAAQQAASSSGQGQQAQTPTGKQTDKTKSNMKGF
T3 sequence (Q96SW2 whole entry): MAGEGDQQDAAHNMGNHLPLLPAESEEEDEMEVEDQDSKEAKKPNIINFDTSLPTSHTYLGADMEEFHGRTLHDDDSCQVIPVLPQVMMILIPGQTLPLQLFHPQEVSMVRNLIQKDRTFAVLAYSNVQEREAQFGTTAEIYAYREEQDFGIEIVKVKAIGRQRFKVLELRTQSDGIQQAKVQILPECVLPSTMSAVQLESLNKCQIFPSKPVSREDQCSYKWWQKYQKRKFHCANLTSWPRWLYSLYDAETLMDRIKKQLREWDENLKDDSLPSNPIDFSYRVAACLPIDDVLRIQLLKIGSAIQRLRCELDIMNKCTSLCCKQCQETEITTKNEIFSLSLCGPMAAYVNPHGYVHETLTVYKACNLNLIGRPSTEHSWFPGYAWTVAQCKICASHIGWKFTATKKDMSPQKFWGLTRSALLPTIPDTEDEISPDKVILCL
T3 sequence (Q16531 whole entry partner): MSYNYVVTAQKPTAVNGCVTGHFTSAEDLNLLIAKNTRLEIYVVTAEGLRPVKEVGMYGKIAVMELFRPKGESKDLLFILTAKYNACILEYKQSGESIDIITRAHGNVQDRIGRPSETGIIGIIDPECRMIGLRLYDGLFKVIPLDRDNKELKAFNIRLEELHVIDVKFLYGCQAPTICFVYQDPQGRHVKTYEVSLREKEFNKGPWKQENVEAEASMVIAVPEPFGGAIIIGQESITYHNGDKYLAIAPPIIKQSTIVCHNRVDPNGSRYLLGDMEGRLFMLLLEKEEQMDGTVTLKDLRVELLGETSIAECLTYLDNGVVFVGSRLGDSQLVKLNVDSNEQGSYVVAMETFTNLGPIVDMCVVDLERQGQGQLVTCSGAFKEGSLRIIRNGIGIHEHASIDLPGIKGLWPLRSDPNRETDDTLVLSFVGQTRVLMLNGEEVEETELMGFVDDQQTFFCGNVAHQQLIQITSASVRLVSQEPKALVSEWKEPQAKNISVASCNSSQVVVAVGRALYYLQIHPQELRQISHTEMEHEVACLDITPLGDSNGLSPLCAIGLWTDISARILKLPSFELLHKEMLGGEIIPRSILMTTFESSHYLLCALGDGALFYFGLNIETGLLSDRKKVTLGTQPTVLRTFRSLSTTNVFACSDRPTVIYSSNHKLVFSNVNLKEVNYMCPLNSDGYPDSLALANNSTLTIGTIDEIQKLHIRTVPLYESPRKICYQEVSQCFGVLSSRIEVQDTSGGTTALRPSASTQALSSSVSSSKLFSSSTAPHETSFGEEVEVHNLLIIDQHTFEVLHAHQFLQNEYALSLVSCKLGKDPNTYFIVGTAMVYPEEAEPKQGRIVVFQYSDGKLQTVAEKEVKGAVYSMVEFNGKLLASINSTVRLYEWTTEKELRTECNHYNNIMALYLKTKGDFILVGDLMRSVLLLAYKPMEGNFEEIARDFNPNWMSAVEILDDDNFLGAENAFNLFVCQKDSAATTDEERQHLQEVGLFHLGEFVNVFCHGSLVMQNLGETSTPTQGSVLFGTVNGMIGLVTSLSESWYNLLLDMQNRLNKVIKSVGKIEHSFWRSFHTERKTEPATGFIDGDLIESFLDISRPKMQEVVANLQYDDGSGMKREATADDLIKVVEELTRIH
T1 sequence (Q13422 whole entry): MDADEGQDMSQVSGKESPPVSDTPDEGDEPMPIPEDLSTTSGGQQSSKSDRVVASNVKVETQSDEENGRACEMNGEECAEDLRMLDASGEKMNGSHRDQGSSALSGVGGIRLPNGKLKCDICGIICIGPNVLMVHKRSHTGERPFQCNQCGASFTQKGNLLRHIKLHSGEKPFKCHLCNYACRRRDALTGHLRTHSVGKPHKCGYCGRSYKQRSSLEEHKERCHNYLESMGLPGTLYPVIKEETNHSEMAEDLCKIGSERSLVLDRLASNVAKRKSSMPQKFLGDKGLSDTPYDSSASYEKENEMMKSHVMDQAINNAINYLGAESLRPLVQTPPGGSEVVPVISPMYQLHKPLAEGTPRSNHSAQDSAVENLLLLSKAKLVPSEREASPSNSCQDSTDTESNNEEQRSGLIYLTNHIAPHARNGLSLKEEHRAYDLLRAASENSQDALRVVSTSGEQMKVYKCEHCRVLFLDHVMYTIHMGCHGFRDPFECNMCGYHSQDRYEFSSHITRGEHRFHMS
T1 sequence (Q96SW2 whole entry): as the sequence (Q96SW2 whole entry) above
T1 sequence (Q16531 whole entry partner): as the sequence (Q16531 whole entry partner) above
T2 sequence (O43924 whole entry): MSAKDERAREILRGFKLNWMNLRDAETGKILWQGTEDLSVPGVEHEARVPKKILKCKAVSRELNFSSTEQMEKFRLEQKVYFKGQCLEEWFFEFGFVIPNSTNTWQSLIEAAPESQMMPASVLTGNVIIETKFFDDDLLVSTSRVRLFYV
T2 sequence (Q96SW2 whole entry): as the sequence (Q96SW2 whole entry) above
T2 sequence (Q16531 whole entry partner): as the sequence (Q16531 whole entry partner) above

Row | Structure (SMILES) | Dmax at 1 µM (Ikaros) [%] | Dmax at 1 µM (PDE6D) [%] | Dmax at 1 µM (CK1α) [%] | inhibition at 1 µM (IL-1β) [%] | inhibition at 10 µM (IL-1β) [%] | inhibition at 1 µM (IL-6) [%] | inhibition at 10 µM (IL-6) [%] | inhibition at 1 µM (TNFα) [%] | inhibition at 10 µM (TNFα) [%] | fold induction at 1 µM (IL-2; [1]) | fold induction at 10 µM (IL-2; [2]) | % Degradation of PDE6D (PDE6D; 1 μM) | effect on IL-2 (in words) (IL-2; 10 μM) | IL-2, % Induction compared to DMSO (IL-2; 10 μM, comparison with comparative compound B) | fold induction at 10 µM (IL-2; 24 h, 10 μM, comparison with comparative compound B) | PDE6D degradation activity (in words) (PDE6D; 1 μM)
1 | O=C1CCC(N2Cc3c(cc(F)cc3C3=CCC(F)(F)CC3)C2=O)C(=O)N1 (stereo not shown) [Compound 9] | < 25 | ≥ 75 | < 25 | < 10 | < 10 | 10 to 25 | 10 to 25 | < 10 | 25 to 50 | 0.5 to 1 | 0.5 to 1 |  |  |  |  | 
2 | CC1(C)CCC(c2cc(F)cc3c2CN(C2CCC(=O)NC2=O)C3=O)CC1 (stereo not shown) [Compound 7] | < 25 | ≥ 75 | < 25 | < 10 | < 10 | 10 to 25 | < 10 | < 10 | 10 to 25 | 1 to 1.5 | 0.5 to 1 |  |  |  |  | 
3 | O=C1CCC(N2Cc3c(cc(F)cc3C3CCCC3)C2=O)C(=O)N1 (stereo not shown) [Compound 1] | 50 to 75 | ≥ 75 | ≥ 75 | 10 to 25 | 25 to 50 | < 10 | < 10 | 25 to 50 | 25 to 50 | ≤ 0.5 | ≤ 0.5 | D (a % degradation value of equal to or more than 75% (value≥75%)) | strong inhibition of IL-2 (downregulation) | A (a fold-change value of equal to or less than 0.5 (value≤0.5)) |  | 
4 | O=C1CCC(N2Cc3c(cc(F)cc3C3CCCCC3)C2=O)C(=O)N1 (stereo not shown) [Compound 3] | 25 to 50 | ≥ 75 | 50 to 75 | < 10 | < 10 | < 10 | < 10 | < 10 | < 10 | ≤ 0.5 | ≤ 0.5 |  |  |  |  | 
5 | O=C1CCC(N2Cc3c(cccc3C3CC3)C2=O)C(=O)N1 (stereo not shown) [Compound 13] | 50 to 75 | 50 to 75 | 50 to 75 | 25 to 50 | 25 to 50 | < 10 | < 10 | > 50 | > 50 | ≥ 1.5 | ≥ 1.5 |  |  |  |  | 
6 | Cc1cccc2c1CN(C1CCC(=O)NC1=O)C2=O (stereo not shown) [Compound B, reference compound] |  |  |  |  |  |  |  |  |  |  |  |  | induced IL-2 (upregulation) |  | ≥ 1.5 | 
7 | Cc1cccc2c1CN(C1CCCC(=O)NC1=O)C2=O (stereo not shown) [Compound A, reference compound] |  |  |  |  |  |  |  |  |  |  |  | A (a % degradation value of less than 25% (value<25%)) |  |  |  | did not demonstrate any measurable PDE6D degradation activity

Further lines, with some results ahead:

Row | Dmax at 1 µM (Ikaros) [%] | Dmax at 1 µM (PDE6D) [%] | Dmax at 1 µM (CK1α) [%] | Structure (SMILES) | inhibition at 1 µM (IL-1β) [%] | inhibition at 10 µM (IL-1β) [%] | inhibition at 1 µM (IL-6) [%] | inhibition at 10 µM (IL-6) [%] | inhibition at 1 µM (TNFα) [%] | inhibition at 10 µM (TNFα) [%] | fold induction at 1 µM (IL-2; [1]) | fold induction at 10 µM (IL-2; [2]) | % Degradation of PDE6D (PDE6D; 1 μM) | effect on IL-2 (in words) (IL-2; 10 μM) | IL-2, % Induction compared to DMSO (IL-2; 10 μM, comparison with comparative compound B) | fold induction at 10 µM (IL-2; 24 h, 10 μM, comparison with comparative compound B) | PDE6D degradation activity (in words) (PDE6D; 1 μM)
8 | 25 to 50 | 50 to 75 | < 25 | CC1(C)CCCC1c1cc(F)cc2c1CN(C1CCC(=O)NC1=O)C2=O (stereo not shown) [Compound 26] | < 10 | < 10 | < 10 | < 10 | < 10 | 10 to 25 | 0.5 to 1 | 0.5 to 1 |  |  |  |  | 
9 | 25 to 50 | < 25 | < 25 | C[C@@H](c1cccc2c1CN(C1CCC(=O)NC1=O)C2=O)C(F)(F)F (stereo partly shown) [Compound 30] | < 10 | < 10 | < 10 | < 10 | < 10 | 10 to 25 | 1 to 1.5 | 0.5 to 1 |  |  |  |  | 
10 | < 25 | ≥ 75 | 50 to 75 | O=C1CCC(N2Cc3c(cc(F)c(F)c3C3CCCC3)C2=O)C(=O)N1 (stereo not shown) [Compound 16] | < 10 | < 10 | < 10 | < 10 | < 10 | 10 to 25 | 0.5 to 1 | 0.5 to 1 |  |  |  |  | 
11 | 25 to 50 | ≥ 75 | 25 to 50 | Cc1c(F)cc2c(c1C1CCCC1)CN(C1CCC(=O)NC1=O)C2=O (stereo not shown) [Compound 21, 3-(4-Cyclopentyl-6-fluoro-5-methyl-1-oxoisoindolin-2-yl) piperidine-2,6-dione] | < 10 | < 10 | < 10 | < 10 | < 10 | 25 to 50 | ≤ 0.5 | ≤ 0.5 |  |  |  |  | 
12 | < 25 | ≥ 75 | 25 to 50 | O=C1CCC(N2Cc3c(cc(F)cc3C3CCOCC3)C2=O)C(=O)N1 (stereo not shown) [Compound 32] | < 10 |  | < 10 |  | < 10 |  |  |  |  |  |  |  | 
13 | 25 to 50 | 50 to 75 | 25 to 50 | O=C1CCC(N2Cc3c(cc(F)cc3C3CC4CCC3C4)C2=O)C(=O)N1 (stereo not shown) [Compound 25] | < 10 | 25 to 50 | < 10 | < 10 | 10 to 25 | 10 to 25 | 1 to 1.5 | 0.5 to 1 |  |  |  |  | 
14 | ≥ 75 | 50 to 75 |  | O=C1CCC(N2Cc3c(cc(F)cc3C(F)F)C2=O)C(=O)N1 (stereo not shown) [Compound 17, 3-(4-(Difluoromethyl)-6-fluoro-1-oxoisoindolin-2-yl) piperidine-2,6-dione] | < 10 | 10 to 25 | < 10 | < 10 | 25 to 50 | 25 to 50 | 0.5 to 1 | 0.5 to 1 |  |  |  |  | 
